{"source": "patent US20060134100A1", "about": "“Dc-sign blockers and their use for preventing or treating viral infections” (priority 2002, published 2006)", "tested_on": "DEN-1 virus strain FGA/NA d1d", "type": "cell-based", "conditions": "THP/DC-SIGN cells, m.o.i. 5 AP61FFU/cell", "description": "Prior to infection, THP-1/DC/SIGN cells were incubated with either Mab 9D12 (dilution 1:50), Mab BD12.5 (20 μg/ml), Mab 1B10.2.6 (20 μg/ml), EDTA (5 mM), mannan (20 μg/ml), or mock-treated (control). Treated cells were infected with DEN-1 virus strain FGA/NA dld (5 AP61FFU/cell) in the presence of reagents for 2 hrs. Viral antigens were detected by indirect immunofluorescence as described in the legend of FIG. 1. The percentages of infected cells 48 h post-infection are indicated. Values represent the mean of triplicate assays±SD.\nCells were washed once with RPMI 1640, incubated with highly purified virus in RPMI 1640 supplemented with 0.2% bovine serum albumine (BSA, pH 7.5) (Sigma) for 2 hrs at 37° C. and placed into fresh media supplemented with 2% FCS, 2 mM L-glutamine and antibiotics Peni/Strepto at 37° C. for 40 hrs.\nAdherent cells were incubated either with EDTA (5 mM), mannan (20 μg/ml), anti-DC-SIGN Mab 1B10.2.6 (20 μg/mi), anti-LMCV Mab 12.5 (isotype control, 20 μg/ml), or DEN E-specific Mab 9D12 (dilution 1:50) in RPMI 1640 supplemented with 0.2% BSA for 20 min at room temperature before binding the virus for 2 hrs. Two hours after infection, cells were washed with RPMI 1640 and incubated with RMPI 1640 2% FCS for 40 hrs. […]", "data": [{"molecule": "O=C(O)CN(CCN(CC(=O)O)CC(=O)O)CC(=O)O", "note": "[EDTA]", "values": [{"measurement": "infectivity of DEN-1 virus after preincubation of cells", "setting": "EDTA 5 mM", "result": "essentially abolished"}]}, {"molecule": "mannan", "values": [{"measurement": "reduction of FGA/NA d1d infectivity", "setting": "mannan 20 μg/ml", "result": 75, "unit": "%"}]}]}
